Where two headings read alike, the source gives them in different places.
Columns and labels:
[1] = system: U-937 (hystiocytic lymphoma); test: 72-hour IC50 determination for non-adherent cells using MTS; type: cell-based, human
Method: (§1) Certain synthesized compounds were screened for their ability to induce death in two human cancer cell lines: U-937 (leukemic monocyte lymphoma) and HeLa (cervical cancer).
(§2) Cells were grown in media supplemented with fetal bovine serum (FBS) and antibiotics ([…]). Specifically, experiments were performed using the following cell lines and media compositions: U-937, HeLa, H460, and 786-O (RPMI-1640+10% FBS), and MCF7 (EMEM+10% FBS). Cells were incubated at 37° C. in a 5% CO2, 95% humidity atmosphere.
(§3) In a 96-well plate, compounds were pre-added as DMSO stocks in triplicate to achieve a final concentration of 1%. DMSO and cell-free wells served as the live and dead control, respectively. U-937 (5,000 cells/well) cells were distributed in 100 μL media to the compound-containing plate. After 72 hours, cell viability was assessed by adding 20 μL of a PMS/MTS solution (Cory, A. H.; Owen, T. C.; Barltrop, J. A.; Cory, J. G. Cancer Commun. 1991, 3, 207) to each well, allowing the dye to develop at 37° C. until the live control had processed MTS, and reading the absorbance at λ=490 nm. IC50 values were determined from three or more independent experiments using TableCurve (San Jose, Calif.).

[2] = system: HeLa (cervical carcinoma); test: 72-hour IC50 determination for adherent cells using sulforhodamine B (SRB); type: cell-based, human
Method: as §1, §2
(§4) Adherent cells (HeLa, H460, 786-O, and MCF7) were added into 96-well plates (5,000 cells/well for HeLa cell line; 2,000 cells/well for H460, 786-O, and MCF7 cell lines) in 100 μL media and were allowed to adhere for 2-3 hours. Compounds were solubilized in DMSO as 100× stocks, added directly to the cells (100 μL final volume), and tested over a range of concentrations in triplicate (1% DMSO final) on a half-log scale. Concentrations tested ranged from […] to 10 μM, depending on the potency of the compound. DMSO and cell-free wells served as the live and dead control, respectively. After 72 hours of continuous exposure, the plates were evaluated using the SRB colorimetric assay as described previously (Vichai, V.; Kirtikara, K. Nature Prot. 2006, 1, 1112). Briefly, media was removed from the plate, and cells were fixed by the addition of 100 μL cold 10% trichloroacetic acid in water. After incubating at 4° C. for an hour, the plates were washed in water and allowed to dry. Sulforhodamine B was added as a 0.057% solution in 1% acetic acid (100 μL), and the plates were incubated at room temperature for 30 minutes, washed in 1% acetic acid, and allowed to dry. The dye was solubilized by adding 10 mM Tris base solution (pH 10.5, 200 μL) and incubating at room temperature for 30 minutes. Plates were read at λ=510 nm. IC50 values were determined from three or more independent experiments using TableCurve (San Jose, Calif.).

[3] = system: human cancer cell lines; test: Anticancer activity in human cancer cell lines, not tied to one cell line; type: cell-based; conditions: for anticancer activity, in words: human cancer cell lines, 72-hour exposure
Method: as §1
Certain provided compounds were tested in culture against a panel of three supplementary human cancer cell lines representing three additional tumor histologies (H460, lung carcinoma; 786-O, renal carcinoma; MCF-7, breast carcinoma). As shown in Table E1-2, the ETPs retain their potency across the cell lines. In some embodiments, a provided compound is active in all cell lines. In some embodiments, a provide compound can be used to selectively target certain cells and/or cancers. […] Without the intention to be limited, Applicant notes that certain cell lines could be more sensitive to provided compounds; for example, U-937 and HeLa are slightly more sensitive to the ETPs than the other three cell lines.
as §4, §3

[4] = 72-hour exposure, MTS, error is standard deviation of the mean, n ≧ 3, read-out: U-937, 72-hour IC50 (Table E1-1)
[5] = 72-hour exposure, SRB, error is standard deviation of the mean, n ≧ 3, read-out: HeLa, 72-hour IC50 (Table E1-1)
[6] = Homo sapiens, U-937, 72 h, read-out: U-937, 72-hour IC50 (Table E1-1)
[7] = Homo sapiens, HeLa, 72 h, read-out: HeLa, 72-hour IC50 (Table E1-1)
[8] = Homo sapiens, U-937, 72-hour exposure, MTS, error is standard deviation of the mean, n ≧ 3, read-out: U-937, 72-hour IC50 (Table E1-1)
[9] = Homo sapiens, HeLa, 72-hour exposure, SRB, error is standard deviation of the mean, n ≧ 3, read-out: HeLa, 72-hour IC50 (Table E1-1)

SMILES	IC50 [1, 4] [µM]	IC50 [2, 5] [µM]	other results
CS[C@H]1C(=O)N2[C@H]3N(S(=O)(=O)c4ccccc4)c4ccccc4[C@@]3(c3c[nH]c4ccccc34)C[C@]2(SC)C(=O)N1C [Compound 39]	> 10	> 10	
CN1C(=O)[C@@]23C[C@]4(c5cn(C(=O)OC(C)(C)C)c6ccccc56)c5ccccc5N(S(=O)(=O)c5ccccc5)[C@@H]4N2C(=O)[C@@H]1SS3 [Compound 24, C3-(N-Boc-indol-3′-yl) epidithiodiketopiperazine]			IC50 ([1]; Homo sapiens, U-937, 72 h, read-out: IC50 (U-937)): 0.0028 to 0.0148 µM; IC50 [1, 6]: 0.0059 ± 0.0014 µM; IC50 [2, 7]: 0.075 ± 0.01 µM; IC50 ([2]; Homo sapiens, HeLa, 72 h, read-out: IC50 (HeLa)): 0.022 to 0.075 µM
COCS[C@]12C[C@]3(c4cn(C(=O)OC(C)(C)C)c5ccccc45)c4ccccc4N(S(=O)(=O)c4ccccc4)[C@@H]3N1C(=O)CN(C)C2=O [Compound 49]	> 10	> 10	
CN1C(=O)[C@]2(O)C[C@]3([C@]45C[C@@]6(O)C(=O)N(C)[C@](C)(O)C(=O)N6[C@H]4N(S(=O)(=O)c4ccccc4)c4ccccc45)c4ccccc4N(S(=O)(=O)c4ccccc4)[C@@H]3N2C(=O)[C@@]1(C)O [Compound 22]	> 1	> 10	
CC(C)C(=O)O[C@@H]1C(=O)N2[C@H]3Nc4ccccc4[C@@]3(c3c[nH]c4ccccc34)C[C@]2(SC(=O)C(C)C)C(=O)N1C [Compound 51]	> 10	> 1	
CN1C(=O)[C@]23C[C@]4(c5c[nH]c6ccccc56)c5ccccc5N(S(=O)(=O)c5ccccc5)[C@@H]4N2C(=O)[C@@]1(C)SS3 [Compound 62, C3-(Indol-3′-yl) epidithiodiketopiperazines]	> 1	> 1	anticancer activity, in words [3]: inactive
CS[C@H]1C(=O)N2[C@H]3Nc4ccccc4[C@@]3(c3c[nH]c4ccccc34)C[C@]2(SC)C(=O)N1C [Compound 7, (+)-gliocladin B]	> 10	> 10	
COCS[C@H]1C(=O)N2[C@H]3Nc4ccccc4[C@@]3(c3c[nH]c4ccccc34)C[C@]2(SCOC)C(=O)N1C [Compound 41, C3-(Indol-3′-yl)bis(S-MOM)ether]			IC50 [1, 8]: > 10 µM; IC50 [2, 9]: > 10 µM; IC50 ([3]; Homo sapiens, cell line not named in the sentence (U-937 and HeLa screened), read-out: IC50 (did not display any anticancer activity)): > 10 µM
CC(=O)OC[C@@]1(OC(=O)C(C)C)C(=O)N2[C@H]3Nc4ccccc4[C@@]3([C@]34C[C@]5(SSSC(c6ccccc6)(c6ccccc6)c6ccccc6)C(=O)N(C)[C@](COC(C)=O)(OC(=O)C(C)C)C(=O)N5[C@H]3Nc3ccccc34)C[C@]2(SSSC(c2ccccc2)(c2ccccc2)c2ccccc2)C(=O)N1C [Compound 20]	> 10	> 10	
CN1CC(=O)N2C(CC3(c4c[nH]c5ccccc45)c4ccccc4N(S(=O)(=O)c4ccccc4)C23)C1=O (centres unmarked) [Compound 59, C3-(indol-3′-yl)-pyrrolidinoindolne]	> 10	> 10	
CN1C(=O)[C@]2(O)C[C@]3([C@]45C[C@@]6(O)C(=O)N(C)[C@](C)(O[Si](C)(C)C(C)(C)C)C(=O)N6[C@H]4N(S(=O)(=O)c4ccccc4)c4ccccc45)c4ccccc4N(S(=O)(=O)c4ccccc4)[C@@H]3N2C(=O)[C@@]1(C)O[Si](C)(C)C(C)(C)C [Compound 23]	> 1	> 10	
CC(C)[Si](O[C@@H]1C(=O)N2[C@H]3N(S(=O)(=O)c4ccccc4)c4ccccc4[C@@]3(c3c[nH]c4ccccc34)C[C@@]2(O)C(=O)N1C)(C(C)C)C(C)C [Compound 57]	> 10	> 10	
COCCOCS[C@H]1C(=O)N2[C@H]3N(S(=O)(=O)c4ccccc4)c4ccccc4[C@@]3(c3cn(C(=O)OC(C)(C)C)c4ccccc34)C[C@]2(S)C(=O)N1C [Compound 47, C3-(N-Boc-indol-3′-yl) S15-MEM ether]	> 10	> 10	
CC(C)C(=O)O[C@@H]1C(=O)N2[C@H]3N(S(=O)(=O)c4ccccc4)c4ccccc4[C@@]3(c3c[nH]c4ccccc34)C[C@]2(SC(=O)C(C)C)C(=O)N1C [Compound 50]	> 1	> 1	
CSS[C@H]1C(=O)N2[C@H]3N(S(=O)(=O)c4ccccc4)c4ccccc4[C@@]3(c3c[nH]c4ccccc34)C[C@]2(SSC)C(=O)N1C [Compound 46, C3-(Indol-3′-yl)bis(methyldlsulfane)]			IC50 [1, 8]: 0.0204 ± 0.009 µM; IC50 [2, 9]: 0.0366 ± 0.0039 µM; anticancer activity, in words [3]: competent anticancer agents
CN1C(=O)[C@]2(O)C[C@]3(c4c[nH]c5ccccc45)c4ccccc4N(S(=O)(=O)c4ccccc4)[C@@H]3N2C(=O)[C@H]1O [Compound 56, C3-(Indol-3′-yl) hexacyclic Diol]	> 10	> 10	
CN1C(=O)[C@]23C[C@]4(Br)c5ccccc5N(S(=O)(=O)c5ccccc5)[C@@H]4N2C(=O)[C@H]1SS3 [Compound 34, C3-Bromo epidithiodiketopiperazines]	0.059 ± 0.023	0.55 ± 0.033	anticancer activity, in words [3]: inactive
CN1CC(=O)N2[C@@H](C[C@]3(Br)c4ccccc4N(S(=O)(=O)c4ccccc4)[C@H]23)C1=O [Compound 54]			IC50 [1, 8]: > 10 µM; IC50 [2, 9]: > 10 µM
CN1C(=O)C(=O)N2C(=C[C@]3(c4c[nH]c5ccccc45)c4ccccc4N[C@H]23)C1=O [Compound 52, (+)-Gliocladin C]			IC50 [1, 6]: > 10 µM; IC50 [2, 7]: > 10 µM
C[C@H]1C(=O)N2[C@@H](C[C@]3([C@]45C[C@H]6C(=O)N(C)[C@@H](C)C(=O)N6[C@H]4N(S(=O)(=O)c4ccccc4)c4ccccc45)c4ccccc4N(S(=O)(=O)c4ccccc4)[C@H]23)C(=O)N1C [Compound 21]	> 1	> 10	
CC(=O)OC[C@@]1(OC(=O)C(C)C)C(=O)N2[C@H]3N(S(=O)(=O)c4ccccc4)c4ccccc4[C@@]3([C@]34C[C@]5(SSSC(c6ccccc6)(c6ccccc6)c6ccccc6)C(=O)N(C)[C@](COC(C)=O)(OC(=O)C(C)C)C(=O)N5[C@H]3N(S(=O)(=O)c3ccccc3)c3ccccc34)C[C@]2(SSSC(c2ccccc2)(c2ccccc2)c2ccccc2)C(=O)N1C [Compound 19, Dimeric bis(triphenylmethanetrisulfide)]	> 10	> 10	
CC(C)[Si](O[C@@H]1C(=O)N2C(=C[C@]3(c4c[nH]c5ccccc45)c4ccccc4N(C(=O)C(F)(F)F)[C@H]23)C(=O)N1C)(C(C)C)C(C)C [Compound 53]			IC50 [1, 8]: > 10 µM; IC50 [2, 9]: > 10 µM
COCCOCS[C@H]1C(=O)N2[C@H]3N(S(=O)(=O)c4ccccc4)c4ccccc4[C@@]3(c3cn(C(=O)OC(C)(C)C)c4ccccc34)C[C@]2(SCOCCOC)C(=O)N1C [Compound 42, C3-(N-Boc-indol-3′-yl)bis(S-MEM)ether]	> 10	> 10	
CN1C(=O)[C@@]2(S)C[C@]3(c4c[nH]c5ccccc45)c4ccccc4N(S(=O)(=O)c4ccccc4)[C@@H]3N2C(=O)[C@H]1O [Compound 48, C3-(Indol-3′-yl) C11-thiohemiaminal]			IC50 [1, 8]: > 10 µM; IC50 [2, 9]: > 10 µM
CC(C)[Si](O[C@@H]1C(=O)N2[C@H]3Nc4ccccc4[C@@]3(c3c[nH]c4ccccc34)C[C@@]2(O)C(=O)N1C)(C(C)C)C(C)C [Compound 58]	> 10	> 10	

— US9353150B2, “Substituted pyrazino[1′,2′:1 ,5]pyrrolo[2,3-b]-indole-1,4-diones for cancer treatment” (Massachusetts Institute of Technology, priority 2012, dated 2016)
